Like-named read-outs stand apart in the source and are kept apart here.
Columns and labels:
PRMT5/MEP50 = PRMT5/MEP50 (Homo sapiens (Human), UniProt O14744); test: PRMT5 Biochemical Assay (PRMT5/MEP50 enzyme assay on peptide substrate, 3H-SAM Flashplate)
Z-138 cell line = test: Z-138 Proliferation Assay (Cell Titer Glo, 5 days); assay type: cell-based; details: Z-138 cells
Text: [formula] Z-138 Proliferation Assay
Z-138 suspension cells were purchased from ATCC (American Type Culture Collection, Manassas, Va.). RPMI/Glutamax medium, penicillin-streptomycin, heat inactivated fetal bovine serum were purchased from Life Technologies, Grand Island, N.Y., USA. V-bottom polypropylene 384-well plates were purchased from Greiner Bio-One, Monroe, N.C., USA. Cell culture 384-well white opaque plates were purchased from Perkin Elmer, Waltham, Mass., USA. Cell-Titer Glo® was purchased from Promega Corporation, Madison, Wis., USA. SpectraMax M5 plate reader was purchased from Molecular Devices LLC, Sunnyvale, Calif., USA.
Z-138 suspension cells were maintained in growth medium (RPMI 1640 supplemented with 10% v/v heat inactivated fetal bovine serum and cultured at 37° C. under 5% CO2 Under assay conditions, cells were incubated in assay medium (RPMI 1640 supplemented with 10% v/v heat inactivated fetal bovine serum and 100 units/mL penicillin-streptomycin) at 37° C. under 5% CO2.
For the assessment of the effect of compounds on the proliferation of the Z-138 cell line, exponentially growing cells were plated in 384-well white opaque plates at a density of 10,000 cells/ml in a final volume of 50 μl of assay medium. A compound source plate was prepared by performing triplicate nine-point 3-fold serial dilutions in DMSO, beginning at 10 mM (final top concentration of compound in the assay was 20 μM and the DMSO was 0.2%). A 100 nL aliquot from the compound stock plate was added to its respective well in the cell plate. […] After addition of compounds, assay plates were incubated for 5 days at 37° C., 5% CO2, relative humidity >90%.
Cell viability was measured by quantitation of ATP present in the cell cultures, adding 35 μl of Cell Titer Glo® reagent to the cell plates. Luminescence was read in the SpectraMax M5 microplate reader. The concentration of compound inhibiting cell viability by 50% was determined using a 4-parametric fit of the normalized dose response curves.

[1] = tested on: symmetric di-methyl arginine in Z-138 cells; test: Z-138 Methylation Assay (In Cell Western for symmetric di-methyl arginine and DNA content); assay type: cell-based; details: read-out: ICW EC50
Text: [formula] Where top and bottom are the normally allowed to float, but may be fixed at 100 or 0 respectively in a 3-parameter fit. The Hill Coefficient normally allowed to float but may also be fixed at 1 in a 3-parameter fit. Y is the % inhibition and X is the compound concentration. Z-138 Methylation Assay
Z-138 suspension cells were purchased from ATCC (American Type Culture Collection, Manassas, Va.). RPMI/Glutamax medium, penicillin-streptomycin, heat inactivated fetal bovine serum, and D-PBS were purchased from Life Technologies, Grand Island, N.Y., USA. Odyssey blocking buffer, 800CW goat anti-rabbit IgG (H+L) antibody, and Licor Odyssey infrared scanner were purchased from Licor Biosciences, Lincoln, Nebr., USA. Symmetric di-methyl arginine antibody was purchased from EMD Millipore, Billerica, Mass., USA. 16% Paraformaldehyde was purchased from Electron Microscopy Sciences, Hatfield, Pa., USA.
Z-138 suspension cells were maintained in growth medium (RPMI 1640 supplemented with 10% v/v heat inactivated fetal bovine serum and 100 units/mL penicillin-streptomycin) and cultured at 37° C. under 5% CO2.
Cell Treatment, in Cell Western (ICW) for Detection of Symmetric Di-Methyl Arginine and DNA Content.
Z-138 cells were seeded in assay medium at a concentration of 50,000 cells per mL to a 384-well cell culture plate with 50 μL per well. Compound (100 nL) from 384 well source plates was added directly to 384 well cell plate. Plates were incubated at 37° C., 5% CO2 for 96 hours. After four days of incubation, 40 μL of cells from incubated plates were added to poly-D-lysine coated 384 well culture plates (BD Biosciences 356697). Plates were incubated at room temperature for 30 minutes then incubated at 37° C., 5% CO2 for 5 hours. After the incubation, 40 μL per well of 8% paraformaldehyde in PBS (16% paraformaldahyde was diluted to 8% in PBS) was added to each plate and incubated for 30 minutes. Plates were transferred to a Biotek 405 plate washer and washed 5 times with 100 μL per well of wash buffer (1×PBS with 0.1% Triton X-100 (v/v)). Next 30 μL per well of Odyssey blocking buffer were added to each plate and incubated 1 hour at room temperature. Blocking buffer was removed and 20 μL per well of primary antibody was added (symmetric di-methyl arginine diluted 1:100 in Odyssey buffer with 0.1% Tween 20 (v/v)) and plates were incubated overnight (16 hours) at 4° C. Plates were washed 5 times with 100 μL per well of wash buffer. Next 20 μL per well of secondary antibody was added (1:200 800CW goat anti-rabbit IgG (H+L) antibody, 1:1000 DRAQ5 (Biostatus limited) in Odyssey buffer with 0.1% Tween 20 (v/v)) and incubated for 1 hour at room temperature. The plates were washed 5 times with 100 μL per well wash buffer then 1 time with 100 μL per well of water. Plates were allowed to dry at room temperature then imaged on the Licor Odyssey machine which measures integrated intensity at 700 nm and 800 nm wavelengths. Both 700 and 800 channels were scanned.
First, the ratio for each well was determined by:
Each plate included fourteen control wells of DMSO only treatment (minimum inhibition) as well as fourteen control wells for maximum inhibition treated with 3 μM of a reference compound (Background wells). The average of the ratio values for each control type was calculated and used to determine the percent inhibition for each test well in the plate. Reference compound was serially diluted three-fold in DMSO for a total of nine test concentrations, beginning at 3 μM. Percent inhibition was determined and IC50 curves were generated using triplicate wells per concentration of compound. […]

[2] = PRMT5 biochemical assay, read-out: Biochemical IC50
[3] = Homo sapiens, Z-138, Z-138 cells

Sequence of PRMT5/MEP50 (O14744 other isoform, or with tags, fused parts or gaps): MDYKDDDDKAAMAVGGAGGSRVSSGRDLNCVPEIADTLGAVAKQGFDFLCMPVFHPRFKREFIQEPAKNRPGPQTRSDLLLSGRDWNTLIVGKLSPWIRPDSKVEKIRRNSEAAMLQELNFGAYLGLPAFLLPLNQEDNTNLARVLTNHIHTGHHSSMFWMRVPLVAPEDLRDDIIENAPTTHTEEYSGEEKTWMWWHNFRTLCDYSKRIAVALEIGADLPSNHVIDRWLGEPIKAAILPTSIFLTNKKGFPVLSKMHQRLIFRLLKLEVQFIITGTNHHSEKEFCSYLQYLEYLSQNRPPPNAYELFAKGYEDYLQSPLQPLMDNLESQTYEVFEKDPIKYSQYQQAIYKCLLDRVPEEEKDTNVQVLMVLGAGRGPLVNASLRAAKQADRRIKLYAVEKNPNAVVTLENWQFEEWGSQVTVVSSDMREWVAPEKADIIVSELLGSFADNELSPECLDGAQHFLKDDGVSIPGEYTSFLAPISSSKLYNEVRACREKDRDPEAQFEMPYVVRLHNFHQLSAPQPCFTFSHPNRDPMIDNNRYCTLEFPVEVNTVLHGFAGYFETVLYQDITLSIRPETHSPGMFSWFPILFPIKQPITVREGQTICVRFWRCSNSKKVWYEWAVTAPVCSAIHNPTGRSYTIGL
Sequence of PRMT5/MEP50 (Q9BQA1 other isoform, or with tags, fused parts or gaps partner): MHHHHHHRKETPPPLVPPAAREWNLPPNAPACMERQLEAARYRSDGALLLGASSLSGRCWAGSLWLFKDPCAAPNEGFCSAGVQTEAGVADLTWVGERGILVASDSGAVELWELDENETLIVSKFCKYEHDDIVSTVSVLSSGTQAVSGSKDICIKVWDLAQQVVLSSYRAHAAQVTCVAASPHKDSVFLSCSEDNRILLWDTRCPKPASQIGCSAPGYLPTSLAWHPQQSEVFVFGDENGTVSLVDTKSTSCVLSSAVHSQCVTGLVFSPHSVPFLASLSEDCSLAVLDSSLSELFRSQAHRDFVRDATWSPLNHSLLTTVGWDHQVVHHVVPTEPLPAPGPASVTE

Molecule	IC50 (PRMT5/MEP50; [2]) [nM]	EC50 (Z-138 cell line; Homo sapiens, Z-138, 120 h) [nM]	EC50 [1, 3] [nM]	IC50 (PRMT5/MEP50) [nM]	EC50 (Z-138 cell line) [nM]	EC50 ([1]; Z-138 cells) [nM]
O=C(COc1ccccc1C1CCCCN1)NC[C@H](O)CN1CCc2ccccc2C1 (stereo partly drawn) [Compound 253]	< 100	10000 to 50000	101 to 1000			
CC1NCCCC1c1ccccc1OCC(=O)NC[C@@H](O)CN1CCc2ccccc2C1 (stereo partly drawn) [Compound 254]	101 to 1000	10000 to 50000	> 1000			
Cn1cncc1-c1cccc(OCC(=O)NC[C@@H](O)CN2CCc3ccccc3C2)c1 [Compound 255]	101 to 1000	> 20000	101 to 1000			
Cn1cc(-c2ccccc2)nc1CCC(=O)NC[C@H](O)CN1CCc2ccccc2C1 [Compound 256]	101 to 1000	> 20000	101 to 1000			
CN1CC(CN(C)S(=O)(=O)c2ccccc2OCC(=O)NC[C@@H](O)CN2CCc3ccccc3C2)C1 [Compound 257]	< 100	101 to 1000	< 100			
CN1CCCCC1c1ccccc1OCC(=O)NCC(O)CN1CCc2ccccc2C1 (stereo not drawn) [Compound 258]	101 to 1000	1000 to 10000	101 to 1000			
Cn1ccnc1CCC(=O)NC[C@H](O)CN1CCc2ccccc2C1 [Compound 259]	101 to 1000	> 20000	101 to 1000			
CC(C)N(C)CCN(C)S(=O)(=O)c1ccccc1OCC(=O)NC[C@@H](O)CN1CCc2ccccc2C1 [Compound 260]	< 100	1000 to 10000	< 100			
O=C(COc1ccccc1[C@H]1CCCNC1)NC[C@H](O)CN1CCc2ccccc2C1 [Compound 261]	< 100	1000 to 10000	101 to 1000			
O=C(COc1ccccc1[C@@H]1CCCNC1)NC[C@H](O)CN1CCc2ccccc2C1 [Compound 262]	< 100	10000 to 50000	101 to 1000			
O=C(COc1ccccc1[C@H]1CCCNC1)NC[C@@H](O)CN1CCc2ccccc2C1 [Compound 263]	101 to 1000	10000 to 50000	101 to 1000			
O=C(COc1ccccc1[C@@H]1CCCNC1)NC[C@@H](O)CN1CCc2ccccc2C1 [Compound 264]	101 to 1000	10000 to 50000	> 1000			
CS(=O)(=O)Nc1cccc(OCC(=O)NC[C@@H](O)CN2CCc3ccccc3C2)c1C1CCCNC1 (stereo partly drawn) [Compound 265]	101 to 1000	> 20000	> 1000			
CC(C)N1CCCC(c2c(NS(C)(=O)=O)cccc2OCC(=O)NC[C@@H](O)CN2CCc3ccccc3C2)C1 (stereo partly drawn) [Compound 266]	101 to 1000	> 20000	> 1000			
O=C(COc1cccc(C(=O)NCCc2ncc[nH]2)c1)NC[C@@H](O)CN1CCc2ccccc2C1 [Compound 267]	101 to 1000	> 20000	> 1000			
[2H]C1([2H])Cc2ccccc2C([2H])([2H])N1C[C@H](O)CNC(=O)COc1cccc2cccnc12 [Compound 269]		> 5000	101 to 1000	101 to 1000		
O=C(COc1ccccc1N1CCNCC1)NC[C@H](O)CN1CCc2ccccc2C1 [Compound 271]	< 100	1000 to 10000	< 100			
CN(C)C1CCN(S(=O)(=O)c2ccccc2OCC(=O)NC[C@@H](O)CN2CCc3ccccc3C2)C1 (stereo partly drawn) [Compound 273]	< 100	10000 to 50000	101 to 1000			
CN1CC[C@H](CN(C)S(=O)(=O)c2ccccc2OCC(=O)NC[C@@H](O)CN2CCc3ccccc3C2)C1 [Compound 274]	< 100	101 to 1000	< 100			
CN1CCN(c2cccc(OCC(=O)NC[C@@H](O)CN3CCc4ccccc4C3)c2S(=O)(=O)N(C)C)CC1 [Compound 275]	< 100	< 100	< 100			
CC1CN(c2cccc(OCC(=O)NC[C@@H](O)CN3CCc4ccccc4C3)c2S(=O)(=O)N(C)C)CCN1 (stereo partly drawn) [Compound 276]	< 100	< 100	< 100			
CCN1CCN(c2cccc(OCC(=O)NC[C@@H](O)CN3CCc4ccccc4C3)c2S(=O)(=O)N(C)C)CC1 [Compound 277]	< 100	< 100	< 100			
CN(C)S(=O)(=O)c1c(OCC(=O)NC[C@@H](O)CN2CCc3ccccc3C2)cccc1N1CCN(C2CC2)CC1 [Compound 278]	< 100	< 100	< 100			
N-(3-(3,4-dihydroisoquinolin-2(1H)-yl)-2-hydroxypropyl)-2-((1-(1-methylpiperidin-4-yl)-1H-indazol-5-yl)oxy)acetamide [Compound 71]	< 100				> 20000	101 to 1000
N-(3-(3,4-dihydroisoquinolin-2(1H)-yl)-2-hydroxypropyl)-2-((1-(piperidin-4-yl)-1H-indazol-5-yl)oxy)acetamide [Compound 70]	< 100				> 20000	101 to 1000
